Measurements reported in patent EP4813377A1, “PHARMACEUTICAL COMPOSITION FOR PREVENTING OR TREATING HEAD AND NECK CANCER” (Astrion Inc., priority 2023, dated 2025).

How the values were obtained:
FaDu cells [1] = assay: CCK assay, cell proliferation; assay type: cell-based, human; conditions: 0.5-4 µM, 48 hours, absorbance at 450 nm, FIG. 1
Experimental: (§1) FaDu cells and squamous cell carcinoma-25 (SCC-25) cells, which are human head and neck cancer cell lines, were seeded in 96-well plates at a density of 1 x 10^5 cells/well and cultured for 24 hours. Thereafter, the cells were treated with compound AON-MG23 of the present invention at various concentrations and cultured for 48 hours. The cells were treated with the compound of the present invention at various concentrations of 0 µM, 0.5 µM, 1 µM, 2 µM, and 4 µM. 10 µL of cell counting kit (CCK) reagent was added and allowed to react for one hour, and then the absorbance was measured at 450 nm.

SCC-25 cells [2] = assay: CCK assay, cell proliferation; assay type: cell-based, human; conditions: 0.5-4 µM, 48 hours, absorbance at 450 nm, FIG. 1
Experimental: as §1

FaDu cells [3] = assay: clonogenic assay; assay type: cell-based, human; conditions: 0.125-1 µM, nine days, FIG. 2
Experimental: To confirm the proliferation inhibitory effect of compound AON-MG23 of the present invention on head and neck cancer cells, a clonogenic assay was conducted. Specifically, head and neck cancer cell line FaDu cells were plated in a 6-well cell culture plate at a density of 250 cells per well. On the next day, the cell culture medium was removed and replaced with a cell culture medium containing compound AON-MG23 of the present invention at concentrations of 0 µM, 0.125 µM, 0.25 µM, 0.5 µM, and 1 µM. After culturing the cells for nine days, the resulting cell colonies were stained and photographed, and then the cell colonies were counted and analyzed using Image J software.

FaDu cells [4] = assay: cell migration assay (SPLScar Block plates); assay type: cell-based; conditions: Homo sapiens, 17 hours, FIG. 3A, read-out: inhibition of migration compared to the control group
Experimental: (§2) Human head and neck cancer cell lines, FaDu cells and SCC-25 cells, were seeded in SPLScar Block plates (SPL) at a density of 7.2 x 10^4/well and cultured for 24 hours. After 24 hours, the blocks were removed, and at the same time, compound AON-MG23 of the present invention was applied at various concentrations. Thereafter, cells were cultured in a CO2 incubator at 37 °C for 17 hours. Specifically, the FaDu cells were treated with compound AON-MG23 of the present invention at concentrations of 0 µM, 0.25 µM, 0.5 µM, 1 µM, and 2 µM, and the SCC-25 cells were also treated at concentrations of 0 µM, 0.25 µM, 0.5 µM, 1 µM, and 2 µM. Photographs were taken before and after each culture, and the migration distance of the cells was measured using Image J software. Based on the results, the inhibition of the cell migration was analyzed.

SCC-25 cells [5] = assay: cell migration assay (SPLScar Block plates); assay type: cell-based; conditions: Homo sapiens, 17 hours, FIG. 3B, read-out: inhibition of migration compared to the control group
Experimental: as §2

FaDu cells [6] = assay: Matrigel Transwell invasion assay; assay type: cell-based, human; conditions: 0.25-2 µM, 24 hours, FIG. 4A
Experimental: (§3) Human head and neck cancer cell lines, FaDu cells and SCC-25 cells, were seeded at a density of 6 x 10^4 cells/well on top of filters coated with Matrigel (Transwell invasion chamber, Corning). Thereafter, the FaDu cells were treated with compound AON-MG23 of the present invention at concentrations of 0 µM, 0.25 µM, 0.5 µM, 1 µM, and 2 µM, and the SCC-25 cells were also treated with the compound at concentrations of 0 µM, 0.25 µM, 0.5 µM, 1 µM, and 2 µM. Cells were cultured in a CO2 in an incubator at 37 °C for 24 hours. After culture, cell fixation and staining were performed using the Diff-Quick stain Kit (Sysmex, Kobe, Japan). The stained cells were imaged under a microscope, and the cells were counted and statistically analyzed using Image J software.

SCC-25 cells [7] = assay: Matrigel Transwell invasion assay; assay type: cell-based, human; conditions: 0.25-2 µM, 24 hours, FIG. 4B
Experimental: as §3

ANO1 protein = assay: Western blot of protein expression; assay type: cell-based, human; conditions: 48 hours, concentration-dependent
Experimental: (§4) Human head and neck cancer cell lines, FaDu cells and SCC-25 cells, were seeded in 60 mm dishes at a density of 5 × 10^5 cells and cultured for 24 hours. Thereafter, the FaDu cells were treated with compound AON-MG23 of the present invention at concentrations of 0 µM, 0.25 µM, 0.5 µM, 1 µM, 2 µM, and 4 µM, and the SCC-25 cells were treated with the compound at concentrations of 0 µM, 0.25 µM, 0.5 µM, 1 µM, and 2 µM. The cells were cultured for 48 hours. After culture, the cells were recovered, and the recovered cells were lysed to perform Western blot. As antibodies used for Western blot, an anti-ANO1 antibody (Abcam, ab53212), an anti-EGFR antibody (Cell Signaling, #4267S), and an anti-glyceraldehyde 3-phosphate dehydrogenase (GAPDH) antibody (Santacruz, #SC-5286) were used. Protein concentration was quantified using the […] (Protein Quantitation Assay, BSA assay) (Pierce, Cat.23225). After lysing the cells, the proteins obtained therefrom were separated by molecular weight using 10% sodium dodecyl sulfate-polyacrylamide gel electrophoresis (SDS-PAGE) with equal amounts (20 µg). After transferring the proteins to a polyvinylidene fluoride (PVDF) membrane (Bio-Rad), the proteins were treated with a 5% blocking buffer (5% skim milk in Tris-buffered saline (TBS) buffer containing 0.1% Tween 20 (TBS-T)) at room temperature for one hour. Subsequently, the membrane was treated with a primary antibody, which was allowed to react at 4 °C for 16 hours. After the reaction was complete, the membrane was washed three times with TBS-T. Subsequently, the membrane was treated with a secondary antibody labeled with horseradish peroxidase at room temperature for one hour and then visualized using an enhanced chemiluminescence (ECL) kit (Bio-Rad). The amount of each protein was quantified and analyzed using Image J software.

EGFR protein = assay: Western blot of protein expression; assay type: cell-based, human; conditions: 48 hours, concentration-dependent
Experimental: as §4

FaDu cells [8] = assay: drug combination effect, SRB assay with Bliss scoring; assay type: cell-based, human; conditions: five days co-treatment, score > 0 = synergistic
Experimental: The combination effect of compound AON-MG23 of the present invention was confirmed using Bliss scoring based on the results of the sulforhodamine B assay (SRB assay). Specifically, human head and neck cancer cell line FaDu cells were plated in a 96-well cell culture plate at a density of 1 x 10^3 cells/well. On the next day, in order to confirm the combination effect with compound AON-MG23 of the present invention, a drug, paclitaxel or osimertinib, was diluted to concentrations for testing, and cells were treated with the diluted drug and then cultured for five days. […] The absorbance of the dissolved solution was measured at 540 nm using a plate reader. The measured absorbance values were compared to the control group and converted into percentages, and the combination effect was analyzed using the percentage data at an analysis website (https://synergyfinder.fimm.fi/). The presence of a combination effect was evaluated according to the following criteria based on relevant literature (Bliss, C. I. (1939). The toxicity of poisons applied jointly. Annals of Applied Biology, 26(3), 585-615.): a score > 0 indicates a synergistic effect; a score = 0 indicates an independent effect; and a score < 0 indicates an antagonistic effect.

[9] = SCC-25 cells, 0.25-2 µM, FIG. 5B

How did the “proliferation of head and neck cancer cells” value (FaDu cells [1]) turn out when `COc1cc(N2CCC(N(C)C)CC2)ccc1Nc1ncc(Cl)c(Nc2ccccc2N(C2CC2)S(C)(=O)=O)n1` [AON-MG23, N-(2-((5-chloro-2-((4-(4-(dimethylamino)piperidin-1-yl)-2-methoxyphenyl)amino)pyrimidin-4-yl)amino)phenyl)-N-cyclopropylmethanesulfonamide] was run?
Its value is “inhibited the proliferation of head and neck cancer cells”.

And the “proliferation of head and neck cancer cells” value (SCC-25 cells [2])?
Its value is “inhibited the proliferation of head and neck cancer cells”.

And the clonogenesis (FaDu cells [3])?
The clonogenesis was “clonogenesis of the FaDu cells was inhibited”.

What about the inhibition at 2 µM (FaDu cells [4]) of the same molecule?
The inhibition at 2 µM was ≥ 80%.

And the inhibition at 1 µM (SCC-25 cells [5])?
Its inhibition at 1 µM is ~90%.

And the “degree of penetration into Matrigel” value (FaDu cells [6])?
The value was “reduced degree of penetration into Matrigel compared to the untreated control group”.

What about the “degree of penetration into Matrigel” value (SCC-25 cells [7]) of the same molecule?
Its value is “reduced degree of penetration into Matrigel compared to the untreated control group”.

What about the ANO1 protein level (ANO1 protein; FaDu cells, 0.25-4 µM, FIG. 5A) of the same molecule?
Its ANO1 protein level is “significantly inhibited”.

And the ANO1 protein level (ANO1 protein; [9])?
Its ANO1 protein level is “significantly inhibited”.

And the EGFR protein level (EGFR protein; FaDu cells, 0.25-4 µM, FIG. 5A)?
Its EGFR protein level is “significantly inhibited”.

And the EGFR protein level (EGFR protein; [9])?
The EGFR protein level was “significantly inhibited”.

What about the Bliss synergy score (FaDu cells [8]; combination with osimertinib, FIG. 6B) of the same molecule?
Its Bliss synergy score is 19.25.

And the Bliss synergy score (FaDu cells [8]; combination with paclitaxel, FIG. 6A)?
The Bliss synergy score was 6.72 points.
